Assay results published in patent US11866450B2, “Modulators of Cystic Fibrosis Transmembrane Conductance regulator, pharmaceutical compositions, methods of treatment, and process for making the modulators” (priority 2018, dated 2024).
Read-outs that look alike come from different tables or passages of the source.

Key:
[1] = snar bond
[2] = target: CFTR-mediated chloride transport (Homo sapiens, UniProt P13569); assay type: cell-based; settings: enteroid cells incubated with test compound 18-24 hours, acute 10 μM forskolin and 300 nM Compound III; for Max. Activity: % of chloride transport with 3 μM Compound A, 3 μM Compound II and 300 nM acute Compound III triple combination control
Summary of the method: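 Membrane-potential fluorescence AUC over 15 min quantified CFTR chloride transport after acute forskolin (10 μM), IBMX (100 μM) and Compound III (300 nM) in chloride-free buffer. Human enteroid cells were pretreated with compound for 18–24 h; % Activity is relative to 3 μM Compound A + 3 μM Compound II + 300 nM Compound III.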

[3] = from 2-chloro-6-[3-(4,4-dimethylpentoxy)-2-oxo-pyrrolidin-1-yl]-N-[[6-[3-[(3S)-5,5-dimethylpyrrolidin-3-yl]propylamino]-2-pyridyl]sulfonyl]pyridine-3-carboxamide (dihydrochloride salt), 15-membered ring, K2CO3, NMP, 24.7 mM, 155.0 °C
[4] = from CC1(C)CC(CCCCCNc2cccc(S(=O)(=O)NC(=O)c3ccc(-n4ccc(OCCC5(C(F)(F)F)CC5)n4)nc3Cl)n2)CN1, 17-membered ring, K2CO3/CsF/3A MS, DMSO, 35.8 mM, 165.0 °C, 16.0 h

Chain of CFTR-mediated chloride transport (P13569 whole entry, looked up): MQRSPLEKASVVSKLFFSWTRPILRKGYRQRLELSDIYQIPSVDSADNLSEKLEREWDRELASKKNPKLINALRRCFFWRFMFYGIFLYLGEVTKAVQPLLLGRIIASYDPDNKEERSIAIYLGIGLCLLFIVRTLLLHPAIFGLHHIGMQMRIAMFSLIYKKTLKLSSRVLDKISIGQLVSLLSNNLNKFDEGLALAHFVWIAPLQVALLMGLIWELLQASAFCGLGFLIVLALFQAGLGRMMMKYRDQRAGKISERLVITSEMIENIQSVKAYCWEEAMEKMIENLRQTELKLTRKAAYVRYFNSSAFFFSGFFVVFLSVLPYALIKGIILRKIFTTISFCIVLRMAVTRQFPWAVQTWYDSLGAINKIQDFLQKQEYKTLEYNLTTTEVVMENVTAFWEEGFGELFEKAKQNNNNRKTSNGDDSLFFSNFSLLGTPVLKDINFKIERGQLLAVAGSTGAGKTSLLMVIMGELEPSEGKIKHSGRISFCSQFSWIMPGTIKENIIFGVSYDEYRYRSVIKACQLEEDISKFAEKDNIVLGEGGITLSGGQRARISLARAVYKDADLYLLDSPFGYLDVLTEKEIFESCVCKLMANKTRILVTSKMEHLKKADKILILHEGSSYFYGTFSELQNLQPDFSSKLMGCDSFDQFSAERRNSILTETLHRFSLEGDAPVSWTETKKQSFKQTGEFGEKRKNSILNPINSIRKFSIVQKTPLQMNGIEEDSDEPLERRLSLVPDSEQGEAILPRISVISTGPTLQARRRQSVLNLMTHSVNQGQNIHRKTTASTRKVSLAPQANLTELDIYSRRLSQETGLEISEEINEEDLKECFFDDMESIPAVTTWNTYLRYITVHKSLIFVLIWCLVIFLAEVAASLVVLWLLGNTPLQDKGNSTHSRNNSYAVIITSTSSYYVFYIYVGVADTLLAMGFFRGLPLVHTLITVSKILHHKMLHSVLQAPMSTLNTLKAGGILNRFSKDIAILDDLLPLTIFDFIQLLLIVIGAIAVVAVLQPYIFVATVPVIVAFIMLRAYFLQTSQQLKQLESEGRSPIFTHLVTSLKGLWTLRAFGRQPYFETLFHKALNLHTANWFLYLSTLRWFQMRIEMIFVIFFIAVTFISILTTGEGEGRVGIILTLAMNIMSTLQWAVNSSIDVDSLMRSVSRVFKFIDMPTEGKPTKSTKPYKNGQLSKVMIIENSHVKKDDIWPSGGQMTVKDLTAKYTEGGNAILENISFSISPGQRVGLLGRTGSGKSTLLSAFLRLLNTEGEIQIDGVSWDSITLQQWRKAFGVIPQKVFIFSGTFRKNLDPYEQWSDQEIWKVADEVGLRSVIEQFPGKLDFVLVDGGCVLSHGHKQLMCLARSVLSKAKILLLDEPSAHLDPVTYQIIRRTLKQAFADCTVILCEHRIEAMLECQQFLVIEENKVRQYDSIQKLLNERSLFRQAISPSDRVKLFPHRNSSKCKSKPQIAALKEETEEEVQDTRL

[2H]C([2H])(COc1ccn(-c2ccc3c(n2)N2C[C@@H](CCCNc4nc(ccc4OCc4ccccc4)S(=O)(=O)NC3=O)CC2(C)C)n1)C1C2(CC2)C12CC2
ring closure, isolated yield ([1]; from [2H]C([2H])(COc1ccn(-c2ccc(C(=O)NS(=O)(=O)c3ccc(OCc4ccccc4)c(NCCC[C@@H]4CN(C(=O)OC(C)(C)C)C(C)(C)C4)n3)c(Cl)n2)n1)C1C2(CC2)C12CC2, 15-membered ring, K2CO3/CsF/4A MS, DMSO, 51.0 mM, 150.0 °C, 2 steps): 68%

[2H]C([2H])(Oc1ccn(-c2ccc3c(n2)N2C[C@@H](CCCNc4cccc(n4)S(=O)(=O)NC3=O)CC2(C)C)n1)C([2H])([2H])C1C2(CC2)C12CC2
ring closure, isolated yield ([1]; from [2H]C([2H])(Oc1ccn(-c2ccc(C(=O)NS(=O)(=O)c3cccc(NCCC[C@@H]4CN(C(=O)OC(C)(C)C)C(C)(C)C4)n3)c(Cl)n2)n1)C([2H])([2H])C1C2(CC2)C12CC2, 15-membered ring, K2CO3/3A MS, NMP, 22.2 mM, 155.0 °C, 2 steps): 60%

12,12,19-trimethyl-8-(3-{2-[1-(trifluoromethyl)cyclopropyl]ethoxy}-1H-pyrazol-1-yl)-2λ^6-thia-3,9,11,19,21-pentaazatetracyclo[18.2.2.111,14.05,10]pentacosa-1(23),5,7,9,20(24),21-hexaene-2,2,4-trione (dihydrochloride salt)
ring closure, isolated yield ([1]; 17-membered ring, K2CO3/CsF, DMSO, 42.1 mM, 150.0 °C): 39%

CN1CCCC2CCC(C)(C)N2c2nc(-n3ccc(OCCC4(C(F)(F)F)CC4)n3)ccc2C(=O)NS(=O)(=O)c2cccc1n2 (racemic) [Compound 9, 12,12,19-trimethyl-8-(3-{2-[1-(trifluoromethyl)cyclopropyl]ethoxy}-1H-pyrazol-1-yl)-2λ^6-thia-3,9,11,19,24-pentaazatetracyclo[18.3.1.05,10.011,15]tetracosa-1(23),5,7,9,20(24),21-hexaene-2,2,4-trione]
ring closure, isolated yield ([1]; from CN(CCCC1CCC(C)(C)N1)c1cccc(S(=O)(=O)NC(=O)c2ccc(-n3ccc(OCCC4(C(F)(F)F)CC4)n3)nc2Cl)n1, 14-membered ring, K2CO3/CsF/3A MS, DMSO, 72.3 mM, 150.0 °C, 25.0 h): 78%
EC50 [2]: < 1000 nM
Max. Activity [2]: ++ (++ is 30-60%)

CC1(C)CC2CCCNc3cccc(n3)S(=O)(=O)NC(=O)c3ccc(-n4ccc(OCCC5(C(F)(F)F)CC5)n4)nc3N1C2 (racemic) [Compound 12, 12,12-dimethyl-8-(3-{2-[1-(trifluoromethyl)cyclopropyl]ethoxy}-1H-pyrazol-1-yl)-2λ^6-thia-3,9,11,18,23-pentaazatetracyclo[17.3.1.111,14.05,10]tetracosa-1(23),5(10),6,8,19,21-hexaene-2,2,4-trione]
ring closure, isolated yield ([1]; from 2-chloro-N-[[6-[3-(5,5-dimethylpyrrolidin-3-yl)propylamino]-2-pyridyl]sulfonyl]-6-[3-[2-[1-(trifluoromethyl)cyclopropyl]ethoxy]pyrazol-1-yl]pyridine-3-carboxamide (dihydrochloride salt), 15-membered ring, K2CO3/CsF, NMP, 144.7 mM, 150.0 °C): 67%
EC50 [2]: < 1000 nM
Max. Activity [2]: +++ (+++ is >60%)

CC1(C)CC2CCCNc3cccc(n3)S(=O)(=O)NC(=O)c3ccc(-n4ccc(OCC5(C(F)(F)F)CC5)n4)nc3N1C2 (racemic) [Compound 15, 12,12-dimethyl-8-(3-{[1-(trifluoromethyl)cyclopropyl]methoxy}-1H-pyrazol-1-yl)-2λ^6-thia-3,9,11,18,23-pentaazatetracyclo[17.3.1.111,14.05,10]tetracosa-1(23),5(10),6,8,19,21-hexaene-2,2,4-trione]
ring closure, isolated yield ([1]; from CC1(C)CC(CCCNc2cccc(S(=O)(=O)NC(=O)c3ccc(-n4ccc(OCC5(C(F)(F)F)CC5)n4)nc3Cl)n2)CN1, 15-membered ring, K2CO3/CsF/3A MS, DMSO, 43.8 mM, 150.0 °C, 16.0 h, 2 steps): 54%
EC50 [2]: < 1000 nM
Max. Activity [2]: +++ (+++ is >60%)

CC1(C)CC2CCCCNc3cccc(n3)S(=O)(=O)NC(=O)c3ccc(-n4ccc(OCCC5(C(F)(F)F)CC5)n4)nc3N1C2 (racemic) [Compound 28, 12,12-dimethyl-8-(3-{2-[1-(trifluoromethyl)cyclopropyl]ethoxy}-1H-pyrazol-1-yl)-2λ^6-thia-3,9,11,19,24-pentaazatetracyclo[18.3.1.111,14.05,10]pentacosa-1(23),5,7,9,20(24),21-hexaene-2,2,4-trione]
ring closure, isolated yield ([1]; from CC1(C)CC(CCCCNc2cccc(S(=O)(=O)NC(=O)c3ccc(-n4ccc(OCCC5(C(F)(F)F)CC5)n4)nc3Cl)n2)CN1, 16-membered ring, K2CO3/CsF/3A MS, DMSO, 62.4 mM, 150.0 °C, 18.0 h, 2 steps): 60%
EC50 [2]: < 1000 nM
Max. Activity [2]: ++ (++ is 30-60%)

CC1(C)CC2CCCOc3cccc(n3)S(=O)(=O)NC(=O)c3ccc(-n4ccc(OCCC5(C(F)(F)F)CC5)n4)nc3N1C2 (racemic) [Compound 40, 12,12-dimethyl-8-(3-{2-[1-(trifluoromethyl)cyclopropyl]ethoxy}-1H-pyrazol-1-yl)-18-oxa-2λ^6-thia-3,9,11,23-tetraazatetracyclo[17.3.1.111,14.05,10]tetracosa-1(22),5,7,9,19(23),20-hexaene-2,2,4-trione]
ring closure, isolated yield ([1]; from CC1(C)CC(CCCOc2cccc(S(=O)(=O)NC(=O)c3ccc(-n4ccc(OCCC5(C(F)(F)F)CC5)n4)nc3Cl)n2)CN1, 15-membered ring, K2CO3/CsF/3A MS, DMSO, 37.3 mM, 150.0 °C, 8.0 h): 48%
EC50 [2]: < 1000 nM
Max. Activity [2]: ++ (++ is 30-60%)

CC1(C)CC2CCCOc3ccc(cc3)S(=O)(=O)NC(=O)c3ccc(-n4ccc(OCCC5(C(F)(F)F)CC5)n4)nc3N1C2 (racemic) [Compound 88, 12,12-Dimethyl-8-(3-{2-[1-(trifluoromethyl)cyclopropyl]ethoxy}-1H-pyrazol-1-yl)-18-oxa-2λ^6-thia-3,9,11-triazatetracyclo[17.2.2.111,14.05,10]tetracosa-1(21),5,7,9,19,22-hexaene-2,2,4-trione]
ring closure, isolated yield ([1]; from CC1(C)CC(CCCOc2ccc(S(=O)(=O)NC(=O)c3ccc(-n4ccc(OCCC5(C(F)(F)F)CC5)n4)nc3Cl)cc2)CN1, 16-membered ring, K2CO3/CsF/3A MS, DMSO, 37.3 mM, 35.0 h): 4%
EC50 [2]: < 1000 nM
Max. Activity [2]: ++ (++ is 30-60%)

CC1(C)CC2CCCCOc3ccc(cc3)S(=O)(=O)NC(=O)c3ccc(-n4ccc(OCCC5(C(F)(F)F)CC5)n4)nc3N1C2 (racemic) [Compound 89, 12,12-dimethyl-8-(3-{2-[1-(trifluoromethyl)cyclopropyl]ethoxy}-1H-pyrazol-1-yl)-19-oxa-2λ^6-thia-3,9,11-triazatetracyclo[18.2.2.111,14.05,10]pentacosa-1(22),5,7,9,20,23-hexaene-2,2,4-trione]
ring closure, isolated yield ([1]; from CC1(C)CC(CCCCOc2ccc(S(=O)(=O)NC(=O)c3ccc(-n4ccc(OCCC5(C(F)(F)F)CC5)n4)nc3Cl)cc2)CN1, 17-membered ring, K2CO3/CsF/3A MS, DMSO, 36.5 mM, 165.0 °C, 18.0 h): 21%
EC50 [2]: < 1000 nM
Max. Activity [2]: ++ (++ is 30-60%)

CC1(C)CCC2CCNc3cccc(n3)S(=O)(=O)NC(=O)c3ccc(-n4ccc(OCCC5(C(F)(F)F)CC5)n4)nc3N21 (racemic) [Compound 108, 8,8-Dimethyl-12-(3-{2-[1-(trifluoromethyl)cyclopropyl]ethoxy}-1H-pyrazol-1-yl)-18λ^6-thia-2,9,11,17,23-pentaazatetracyclo[17.3.1.05,9.010,15]tricosa-1(23),10(15),11,13,19,21-hexaene-16,18,18-trione]
ring closure, isolated yield ([1]; from CC(C)(C)OC(=O)N1C(CCNc2cccc(S(=O)(=O)NC(=O)c3ccc(-n4ccc(OCCC5(C(F)(F)F)CC5)n4)nc3Cl)n2)CCC1(C)C, 13-membered ring, TFA (Boc off), CsF/K2CO3/3A MS, DMSO, 84.6 mM, 130.0 °C, 2 steps): 55%
EC50 [2]: < 1000 nM
Max. Activity [2]: ++ (++ is 30-60%)

CC(C)(C)CCCOC1CCN(c2ccc3c(n2)N2C[C@@H](CCCNc4cccc(n4)S(=O)(=O)NC3=O)CC2(C)C)C1=O (single isomer, unassigned; diastereomer 1)
ring closure, isolated yield [1, 3]: 20%

CC(C)(C)CCCOC1CCN(c2ccc3c(n2)N2C[C@@H](CCCNc4cccc(n4)S(=O)(=O)NC3=O)CC2(C)C)C1=O (single isomer, unassigned; diastereomer 2)
ring closure, isolated yield [1, 3]: 19%

CC1(C)CC2CCCCCNc3cccc(n3)S(=O)(=O)NC(=O)c3ccc(-n4ccc(OCCC5(C(F)(F)F)CC5)n4)nc3N1C2 (single isomer, unassigned; enantiomer 1)
ring closure, isolated yield [1, 4]: 47%

CC1(C)CC2CCCCCNc3cccc(n3)S(=O)(=O)NC(=O)c3ccc(-n4ccc(OCCC5(C(F)(F)F)CC5)n4)nc3N1C2 (single isomer, unassigned; enantiomer 2)
ring closure, isolated yield [1, 4]: 50%

racemic 8-[3-(2-{dispiro[2.0.2.1]heptan-7-yl}ethoxy)-1H-pyrazol-1-yl]-16,16-difluoro-12,12-dimethyl-2λ^6-thia-3,9,11,18,23-pentaazatetracyclo[17.3.1.111,14.05,10]tetracosa-1(22),5,7,9,19(23),20-hexaene-2,2,4-trione
ring closure, isolated yield ([1]; 15-membered ring, K2CO3, NMP, 31.1 mM, 150.0 °C): 83%
